The values below are quoted from earlier work in patent US6620844B2, “Method for reducing blood insulin levels by reducing in vivo cathepsin L activity” (NewMillennium Pharmaceutical, Inc., priority 2001, dated 2003).

Molecules are shown by their SMILES.

Settings in all cases: cited from earlier work
Series [1] has as its target Cathepsin S (Homo sapiens, UniProt P25774).
Series [2] has as its target Cathepsin B (Homo sapiens, UniProt P07858).
Series [3] deals with T1, Cathepsin K (Homo sapiens, UniProt P43235).
T1 sequence (P43235 115-329): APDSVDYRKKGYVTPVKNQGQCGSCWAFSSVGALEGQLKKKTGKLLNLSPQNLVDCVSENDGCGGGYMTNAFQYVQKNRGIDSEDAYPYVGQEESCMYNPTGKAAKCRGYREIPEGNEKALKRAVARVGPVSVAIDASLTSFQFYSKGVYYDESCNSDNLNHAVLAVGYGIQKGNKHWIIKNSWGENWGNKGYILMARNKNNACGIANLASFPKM

The target in series [4] is Cathepsin L (Homo sapiens, UniProt P07711).
Cathepsin L, sequence (P07711 114-333, species assumed): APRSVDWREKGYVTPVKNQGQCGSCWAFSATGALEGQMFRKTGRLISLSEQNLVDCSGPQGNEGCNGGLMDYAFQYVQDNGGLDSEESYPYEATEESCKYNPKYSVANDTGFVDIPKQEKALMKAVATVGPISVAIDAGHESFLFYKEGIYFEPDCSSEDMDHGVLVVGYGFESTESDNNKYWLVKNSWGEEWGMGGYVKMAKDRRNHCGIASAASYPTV

Cathepsin S, sequence (P25774 115-331, species assumed): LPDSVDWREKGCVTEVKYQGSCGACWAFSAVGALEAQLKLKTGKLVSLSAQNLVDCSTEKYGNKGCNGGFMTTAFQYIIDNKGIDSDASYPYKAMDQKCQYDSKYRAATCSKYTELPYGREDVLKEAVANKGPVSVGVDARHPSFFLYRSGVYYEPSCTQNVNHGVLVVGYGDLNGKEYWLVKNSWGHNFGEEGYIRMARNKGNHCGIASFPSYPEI

As a reminder, the Ki is the dissociation constant of the complex between target and ligand, obtained from inhibition or displacement. On to `CC(C)CC(NC(=O)[C@@H](Cc1ccccc1)NC(=O)OCc1ccccc1)C(=O)C=O` (some centres unmarked), for which the inhibition constant Ki was 0.185 nM in series [1] and 0.76 nM in series [2].

Turning to `CC(C)C[C@H](NC(=O)N1CCOCC1)C(=O)N[C@H](/C=C/S(=O)(=O)c1ccccc1)CCc1ccccc1`, the Ki in series [1] was 5 nM.

As usually defined, the IC50 is the midpoint of a concentration-inhibition curve. As for `N#CN1CCC(NC(=O)Cc2ccccc2)C1` (centres unmarked), the results for the IC50 in series [3], in series [2] and in series [4] were 40 nM, 200 nM and 54 nM, respectively.

Consider `N#CN1CC(NC(=O)CC2CCCCC2)C1`, for which the IC50 in series [3] is 5 nM; in series [2], 150 nM; in series [4], 6 nM.

On to `CC(C)C[C@H](NC(=O)[C@H](CC(C)C)NC(=O)OCc1ccccc1)C(=O)COCc1ccc(-c2ccccc2)cc1`, for which the Ki is 22 nM in series [3], 1310 nM in series [2] and 63 nM in series [4].

For `O=C[C@H](Cc1c[nH]c2ccccc12)NC(=O)C(Cc1ccccc1)Cc1ccccc1`, the IC50 in series [2] was greater than 1000 nM; in series [4], less than 32 nM.

On to `CC(C)CC(NC(=O)[C@H](CC(C)C)NC(=O)OCc1ccccc1)C(=O)COCc1ccc(-c2ccccc2)cc1` (some centres unmarked), for which the Ki in series [3] is 22 nM; in series [2] it was 1310 nM; in series [4], 63 nM.
